Experimental data taken from patent US12331051B2 (priority 2021, dated 2025).
pEC50, pIC50: −log10 of the molar value.

How the values were obtained:
mice = experiment: Tolerance after repeated dosing, HTR to DOI challenge; format: in vivo, mouse; conditions: IP once daily 7 days: DOI 10 mg/kg/day, E559 polymorph 3 mg/kg/day; DOI 1 mg/kg challenge 24 hours later
Description: To determine if repeated dosing of the “E559 polymorph” can induce tolerance in vivo, HTR experiment described in Examples 2 and 5 was repeated where mice received IP injections of vehicle, DOI (10 mg/kg/day), or the “E559 polymorph” (3 mg/kg/day; once daily for 7 consecutive days) and were then challenged with DOI (1 mg/kg) 24 hours later. Data shown in FIG. 22 are group means±standard deviation for the entire 60 minutes test session. Asterisks indicate statistical significances compared to the Vehicle control (Vehicle was saline).

5-HT2A receptor [1] = molecular target: T1, 5-HT2A receptor (Homo sapiens, UniProt P28223)
5-HT2A receptor [2] = molecular target: T1, 5-HT2A receptor; experiment: 5-HT2A receptor internalization, NanoBit HiBit-fused 5-HT2A in HEK293T cells; format: cell-based; parameters: expressed in transfected cells; host or cells: HEK293T
Description: To assess the ability of the “E559 polymorph” to induce β-arrestin-mediated 5-HT2A receptor internalization in vitro, the loss of surface expression of 5-HT2A receptor was measured using a NanoBit N-terminal HiBit-fused 5-HT2A construct cloned in HEK293T cells (1:15 ratio 5-HT2A: β-arrestin2). In brief, cells were treated with serial dilution of test compounds for 1 hour or a specified time point.

[3] = system: primary cortical neurons (rats); experiment: In vitro dendritogenesis assay with volinanserin pre-treatment; format: cell-based, rat
Description: The 5-HT2A receptor plays a key role in the function of serotonergic psychedelics and their derivatives (Jaster, et al., Psychopharmacology, 2022, 239, p1665-1677.). […] The in vitro dendritogenesis assay was repeated in the presence or absence of a selective 5-HT2A antagonist volinanserin. In brief, FIG. 20A represents tracings of the cortical neurons (DIV 3) treated with volinanserin (Vol) at […]) followed by either vehicle or “E559 polymorph” (1 μM). Sholl radii are spaced 10 μm. […] FIG. 20C represents the total dendritic arbour length for neurons treated in FIG. 20A. In FIGS. 20B and 20C, violin plots represent the distribution of individual cells (n=15/treatment), while dots represent the averages per independent experiment (n=5/treatment). In this study primary cortical neurons (rats) were treated with volinanserin (0.1-1 μM), a selected 5-HT2A receptor antagonist, prior to the administration of the “polymorph HT compound” (1 μM 2-Br-LSD).

stress-naïve mice = experiment: FST and OFT with volinanserin pre-treatment; format: in vivo, mouse
Description: The 5-HT2A receptor plays a key role in the function of many serotonergic psychedelics and their derivatives (Jaster et al., Psychopharmacology, 2022, 239, p1665-1677.). […] To further investigate the role of the 5-HT2A receptor in the “E559 polymorph” effects in these in vivo models, the open field test and forced swim test in mice was repeated as described in Example 14, with and without volinanserin, a selective 5-HT2A antagonist, treatment. Briefly, volnanserin (0.125 mg/kg) was administered (IP injection) 1 hour prior to the administration of the “E559 polymorph” (1 mg/kg, IP) to stress-naïve mice, and forced swim test was performed 24 hours later as described in Example 14. In brief, FIG. 26A represents immobility time in the forced swim test of female mice (n=12/group) pre-treated with vehicle or volinanserin, followed by either vehicle (saline) or “E559 polymorph” (1 mg/kg). […] FIG. 26C represents distance travelled in the open field Measured 24 hours after treatment (as in FIG. 26A) in female mice (n=12). […] Horizontal lines in FIG. 26 represent the mean±standard error of the mean (S.E.M.) and asterisks indicate statistical significances.

[4] = molecular target: T2, Serotonin 1B receptor (5-HT1BR) (Homo sapiens, UniProt P28222); experiment: Functional assay in HEK-293 cells (cAMP); format: cell-based; conditions: Functional Assay (agonist) EC50 (nM), cAMP; ligand 5-HT
T2 construct: expressed in transfected cells; host or cells: HEK-293
Description: (§1) Neuro-receptor binding and functional effects of the “E559 polymorph” was examined by analyzing binding affinity [Ki (nM)], functional agonist activity [EC50 (nM)], and functional antagonist activity [IC50 (nM)] against a panel of key receptors in neurophysiological disorders. Binding and functional assays were performed at “E559 polymorph” concentrations of 0.0003, 0.003, 0.01, 0.03, 0.1, 0.3, 1, and 10 μM. In binding assays, cell membrane homogenates, expressing each receptor target, were incubated with the corresponding radio-ligand in absence or presence of several concentration of the “E559 polymorph” compound. The measurement of binding affinity of the “E559 polymorph” is represented in TABLE XIII by Ki (nM) which was calculated as percent inhibition of the binding of a radioactively labeled reference ligand at each receptor. In functional assays the HEK-293 cells expressing each receptor target were suspended in buffer and distribute in microplates and incubated for 30 minutes at room temperature or 37° C. in the presence of buffer alone (basal control), the reference agonist or antagonist, or the “E559 polymorph. Following incubation, the cells were lysed and the appropriate fluorescent probe (Ca2+ flux, cAMP, or IP1) were added for 60 minutes to measure the fluorescence transfer at the appropriate wavelength using a microplate reader. The cellular agonist effect (EC50) was calculated as a percent of control response to a known reference agonist and the cellular antagonist effect (IC50) was calculated as a percent inhibition of control reference agonist response for each receptor.
(§2) The functional agonist activity [EC50 (nM), Emax], and functional antagonist activity [IC50 (nM)] of the 5R:8S stereoisomer of the “E559 polymorph” (5R:8S E558) was compared with the “E559 polymorph” (a 5R:8R stereoisomer) at selected serotonin receptors. The assays were performed as described in Example 6.

[5] = molecular target: T3, 5-HT2A receptor (5-HT2AR) (Homo sapiens, UniProt P28223); experiment: Functional assay in HEK-293 cells (IP1); format: cell-based
T3 construct: expressed in transfected cells; host or cells: HEK-293
Description: as §1, §2

[6] = molecular target: T4, Serotonin 2B receptor (5-HT2BR) (Homo sapiens, UniProt P41595); experiment: Functional assay in HEK-293 cells (IP1); format: cell-based
T4 construct: expressed in transfected cells; host or cells: HEK-293
Description: as §1, §2

5-HT1E = molecular target: T5, 5-HT1E (Homo sapiens, UniProt P28566); experiment: Functional assay (Arrestin); format: cell-based
T5 construct: expressed in transfected cells; host or cells: HEK-293

5-HT1F = molecular target: T6, 5-HT1F (Homo sapiens, UniProt P30939); experiment: Functional assay (cAMP); format: cell-based
T6 construct: expressed in transfected cells; host or cells: HEK-293
T6 sequence (P30939 1-366): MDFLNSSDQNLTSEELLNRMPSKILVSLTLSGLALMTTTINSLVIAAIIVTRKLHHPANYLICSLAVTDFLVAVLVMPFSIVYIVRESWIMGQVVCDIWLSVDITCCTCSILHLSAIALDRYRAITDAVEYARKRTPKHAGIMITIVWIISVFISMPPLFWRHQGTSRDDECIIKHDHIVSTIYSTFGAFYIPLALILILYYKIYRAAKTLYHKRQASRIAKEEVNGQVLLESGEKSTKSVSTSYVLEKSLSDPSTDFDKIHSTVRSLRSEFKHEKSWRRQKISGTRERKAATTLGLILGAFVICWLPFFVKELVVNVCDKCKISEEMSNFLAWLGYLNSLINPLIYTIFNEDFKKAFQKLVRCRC
Description: as §1, §2

5-HT6 = 5-HT6 (Homo sapiens, UniProt P50406); experiment: Functional assay (cAMP); format: cell-based; parameters: expressed in transfected cells; host or cells: HEK-293
Description: as §1, §2

DVS hygroscopicity = format: physicochemical; conditions: for DVS (hold at 75% RH) mass increase: crude material, 75% relative humidity, ~5 hr run time
[7] = cAMP, ligand 5-HT, read-out: Functional Assay (agonist) Emax

T1 sequence (P28223 whole entry, the tested form may be a part): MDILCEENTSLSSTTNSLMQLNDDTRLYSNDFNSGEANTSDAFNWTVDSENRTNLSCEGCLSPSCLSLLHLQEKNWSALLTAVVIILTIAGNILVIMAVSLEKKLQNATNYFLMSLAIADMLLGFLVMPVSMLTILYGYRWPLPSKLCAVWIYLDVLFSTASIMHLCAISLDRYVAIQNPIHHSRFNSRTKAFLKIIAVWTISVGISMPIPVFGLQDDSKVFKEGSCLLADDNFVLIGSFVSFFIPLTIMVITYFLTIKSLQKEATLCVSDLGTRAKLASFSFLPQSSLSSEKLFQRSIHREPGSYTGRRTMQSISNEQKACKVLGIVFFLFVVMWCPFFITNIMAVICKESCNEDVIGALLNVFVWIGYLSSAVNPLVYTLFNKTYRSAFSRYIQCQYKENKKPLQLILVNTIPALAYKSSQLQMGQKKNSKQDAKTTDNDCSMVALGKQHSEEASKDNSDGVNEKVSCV
T3 sequence (P28223 whole entry): as the sequence (P28223 whole entry, the tested form may be a part) above
T4 sequence (P41595 whole entry): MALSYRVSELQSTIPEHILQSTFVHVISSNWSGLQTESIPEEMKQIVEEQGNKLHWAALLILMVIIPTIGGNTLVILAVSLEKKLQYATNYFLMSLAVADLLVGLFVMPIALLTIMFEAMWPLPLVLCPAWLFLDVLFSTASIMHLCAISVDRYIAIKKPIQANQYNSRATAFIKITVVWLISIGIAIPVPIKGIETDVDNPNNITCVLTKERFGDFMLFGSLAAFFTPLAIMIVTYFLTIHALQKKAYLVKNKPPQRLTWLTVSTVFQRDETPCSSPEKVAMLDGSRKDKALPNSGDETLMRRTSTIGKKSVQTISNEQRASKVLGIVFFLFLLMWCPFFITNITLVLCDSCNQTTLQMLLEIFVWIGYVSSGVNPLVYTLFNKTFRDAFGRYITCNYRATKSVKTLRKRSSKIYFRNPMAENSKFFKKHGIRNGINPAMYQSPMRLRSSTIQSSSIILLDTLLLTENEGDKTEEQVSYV
Chain of 5-HT6 (P50406 whole entry): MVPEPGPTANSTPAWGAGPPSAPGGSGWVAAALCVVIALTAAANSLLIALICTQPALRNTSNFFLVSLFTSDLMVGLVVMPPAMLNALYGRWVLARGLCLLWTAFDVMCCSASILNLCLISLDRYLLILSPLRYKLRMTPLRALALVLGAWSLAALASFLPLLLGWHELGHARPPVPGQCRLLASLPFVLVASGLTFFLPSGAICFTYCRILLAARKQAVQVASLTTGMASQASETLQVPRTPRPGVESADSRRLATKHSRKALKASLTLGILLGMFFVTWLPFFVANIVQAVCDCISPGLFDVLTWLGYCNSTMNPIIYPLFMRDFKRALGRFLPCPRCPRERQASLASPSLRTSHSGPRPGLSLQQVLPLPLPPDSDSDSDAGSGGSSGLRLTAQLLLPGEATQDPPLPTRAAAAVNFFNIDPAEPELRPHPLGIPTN
T2 sequence (P28222 whole entry): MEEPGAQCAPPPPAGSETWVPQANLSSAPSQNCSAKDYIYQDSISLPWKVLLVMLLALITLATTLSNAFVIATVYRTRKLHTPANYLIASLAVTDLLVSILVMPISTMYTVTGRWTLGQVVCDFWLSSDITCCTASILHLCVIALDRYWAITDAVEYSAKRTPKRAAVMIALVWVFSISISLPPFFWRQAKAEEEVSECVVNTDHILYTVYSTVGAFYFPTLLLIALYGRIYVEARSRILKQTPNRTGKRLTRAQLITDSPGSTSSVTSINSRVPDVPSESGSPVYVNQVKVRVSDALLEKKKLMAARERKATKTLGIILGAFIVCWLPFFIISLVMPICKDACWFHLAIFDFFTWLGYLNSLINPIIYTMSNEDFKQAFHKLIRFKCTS
T5 sequence (P28566 whole entry): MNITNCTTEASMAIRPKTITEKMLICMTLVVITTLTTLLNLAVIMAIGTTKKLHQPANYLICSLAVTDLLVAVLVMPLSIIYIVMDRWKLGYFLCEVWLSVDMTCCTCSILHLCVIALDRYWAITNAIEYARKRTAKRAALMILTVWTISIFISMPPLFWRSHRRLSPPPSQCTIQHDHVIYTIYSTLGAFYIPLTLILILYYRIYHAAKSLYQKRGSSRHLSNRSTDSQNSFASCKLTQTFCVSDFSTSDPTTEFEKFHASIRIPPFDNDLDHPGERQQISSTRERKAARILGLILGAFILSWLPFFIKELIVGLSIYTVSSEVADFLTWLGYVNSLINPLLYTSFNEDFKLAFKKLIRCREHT

In the case of `COc1cc(CC(C)N)c(OC)cc1I` (stereo not drawn) [DOI, 2,5-Dimethoxy-4-iodoamphetamine], the “tolerance (tachyphylaxis) after repeated dosing, HTR count on DOI challenge” value (mice) was “induced a significant degree of tachyphylaxis/tolerance”, the “β-Arrestin2 recruitment at the 5-HT2A receptor” value (5-HT2A receptor [1]) was “strong recruiters of β-Arrestin2” and the “internalization of the 5-HT2A receptor (loss of surface expression)” value (5-HT2A receptor [2]) was “potent internalization”.
For `COc1cccc([C@H](O)C2CCN(CCc3ccc(F)cc3)CC2)c1OC` [volinanserin], the “effect of volinanserin on E559 polymorph induced increase in total dendrite length” value ([3]; E559 polymorph 1 μM) was “blocked the increase in total dendrite length”, the “effect of volinanserin pre-treatment on E559 polymorph (1 μM) induced dendritic arbor complexity (Sholl intersections)” value ([3]; every volinanserin concentration tested) was “blocked the effect” and the “dendritic arbor complexity, volinanserin alone” value ([3]; volinanserin followed by vehicle) was “did not change any parameters linked to dendritic arbor complexity”. For the same compound, the “effect of volinanserin pre-treatment on E559 polymorph induced decrease in immobility in FST” value (stress-naïve mice; volinanserin 0.125 mg/kg IP 1 hour before E559 polymorph 1 mg/kg IP, female and male mice) was “blocked the decrease in immobility” and the “locomotion in the OFT” value (stress-naïve mice; volinanserin alone or with E559 polymorph, female or male mice) was “did not affect locomotion in the OFT in female or male mice”.
For `NCCc1c[nH]c2ccc(O)cc12` [5-HT, serotonin], the “β-Arrestin2 recruitment at the 5-HT2A receptor” value (5-HT2A receptor [1]) was “strong recruiters of β-Arrestin2” and the “internalization of the 5-HT2A receptor (loss of surface expression)” value (5-HT2A receptor [2]) was “potent internalization”.
For `CCN(CC)C(=O)[C@H]1C=C2c3cccc4[nH]c(Br)c(c34)C[C@H]2N(C)C1` [E558, (5R, 8S)-2-Bromo-9,10-didehydro-N,N-diethyl-6-methylergoline-8-carboxamide], the EC50 [4] was > 10000 nM, the pEC50 [5] was 6.70 and the pIC50 [5] was < 5.00. The Emax ([5]; HEK293, IP1, ligand 5-HT, read-out: Functional Assay (agonist) Emax) was 55%, the pEC50 [6] was < 5.00 and the pIC50 [6] was < 5.00. The pEC50 (5-HT1E) was < 5.00, the pEC50 (5-HT1F) was 5.51 and the Emax (5-HT1F; [7]) was 66.9%. It also gave a pEC50 (5-HT6) of 7.00 and an Emax (5-HT6; [7]) of 71%.
In the case of `CCN(CC)C(=O)[C@@H]1C=C2c3cccc4[nH]c(Br)c(c34)C[C@H]2N(C)C1` [E560, (5R, 8R)-2-Bromo-9,10-didehydro-N,N-diethyl-6-methylergoline-8-carboxamide hemi-L-tartrate], the “DVS (0-90-0 2 cycles) max water absorbed” value (DVS hygroscopicity; 90% RH exposure, ~24 hr run time, listed as L-Tartrate) was “absorbed mad 12%”, the “DVS (hold at 75% RH) mass increase” value (DVS hygroscopicity; listed as L-Tartrate) was 6.3% mass increase and the “DVS (hold at 75% RH) mass increase” value (DVS hygroscopicity; listed as L-tartrate salt) was “about 6.3%”.
